Results published in PubChem BioAssay (NCI).
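Protocol summary: plate cells (96-well), add compound at 5 concentrations, incubate 48 h, interpolate endpoints linearly. TGI is the concentration that stops growth completely.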

Legend:
Test in all cases: growth of human tumour cells (NCI), 48 h
786-0 renal = test system: 786-0 renal
A498 renal = test system: A498 renal
A549 NSCLC = test system: A549 NSCLC
ACHN renal = test system: ACHN renal
BT-549 breast = test system: BT-549 breast
CAKI-1 renal = test system: CAKI-1 renal
CCRF-CEM leukemia = test system: CCRF-CEM leukemia
COLO 205 colon = test system: COLO 205 colon
DU-145 prostate = test system: DU-145 prostate
EKVX NSCLC = test system: EKVX NSCLC
HCT-116 colon = test system: HCT-116 colon
HCT-15 colon = test system: HCT-15 colon
HL-60(TB) leukemia = test system: HL-60(TB) leukemia
HOP-62 NSCLC = test system: HOP-62 NSCLC
HOP-92 NSCLC = test system: HOP-92 NSCLC
HS 578T breast = test system: HS 578T breast
HT29 colon = test system: HT29 colon
IGROV1 ovarian = test system: IGROV1 ovarian
K-562 leukemia = test system: K-562 leukemia
KM12 colon = test system: KM12 colon
LOX IMVI melanoma = test system: LOX IMVI melanoma
M14 melanoma = test system: M14 melanoma
MALME-3M melanoma = test system: MALME-3M melanoma
MCF7 breast = test system: MCF7 breast
MDA-MB-231 breast = test system: MDA-MB-231 breast
MDA-MB-435 = test system: MDA-MB-435
MDA-N = test system: MDA-N
MOLT-4 leukemia = test system: MOLT-4 leukemia
NCI-H226 lung = test system: NCI-H226 lung
NCI-H23 lung = test system: NCI-H23 lung
NCI-H522 lung = test system: NCI-H522 lung
NCI/ADR-RES ovarian = test system: NCI/ADR-RES ovarian
OVCAR-3 ovarian = test system: OVCAR-3 ovarian
OVCAR-4 ovarian = test system: OVCAR-4 ovarian
OVCAR-5 ovarian = test system: OVCAR-5 ovarian
OVCAR-8 ovarian = test system: OVCAR-8 ovarian
PC-3 prostate = test system: PC-3 prostate
RPMI-8226 leukemia = test system: RPMI-8226 leukemia
RXF 393 renal = test system: RXF 393 renal
SF-268 CNS = test system: SF-268 CNS
SF-295 CNS = test system: SF-295 CNS
SF-539 CNS = test system: SF-539 CNS
SK-MEL-2 melanoma = test system: SK-MEL-2 melanoma
SK-MEL-28 melanoma = test system: SK-MEL-28 melanoma
SK-MEL-5 melanoma = test system: SK-MEL-5 melanoma
SN12C renal = test system: SN12C renal
SNB-19 CNS = test system: SNB-19 CNS
SW-620 colon = test system: SW-620 colon
T-47D breast = test system: T-47D breast
TK-10 renal = test system: TK-10 renal
U251 CNS = test system: U251 CNS
UACC-257 melanoma = test system: UACC-257 melanoma
UACC-62 melanoma = test system: UACC-62 melanoma
UO-31 renal = test system: UO-31 renal
HCC-2998 colon = test system: HCC-2998 colon
NCI-H460 lung = test system: NCI-H460 lung
SK-OV-3 ovarian = test system: SK-OV-3 ovarian
SNB-75 CNS = test system: SNB-75 CNS
SR leukemia = test system: SR leukemia

SMILES: CNC(=O)c1ccccc1-[s+]1c2ccccc2c(=O)n1C (stereo not given)
- TGI (786-0 renal): > 100 µM
- TGI (A498 renal): > 100 µM
- TGI (A549 NSCLC): > 100 µM
- TGI (ACHN renal): > 100 µM
- TGI (BT-549 breast): > 100 µM
- TGI (CAKI-1 renal): > 100 µM
- TGI (CCRF-CEM leukemia): > 100 µM
- TGI (COLO 205 colon): > 100 µM
- TGI (DU-145 prostate): > 100 µM
- TGI (EKVX NSCLC): > 100 µM
- TGI (HCT-116 colon): > 100 µM
- TGI (HCT-15 colon): > 100 µM
- TGI (HL-60(TB) leukemia): > 100 µM
- TGI (HOP-62 NSCLC): > 100 µM
- TGI (HOP-92 NSCLC): > 100 µM
- TGI (HS 578T breast): > 100 µM
- TGI (HT29 colon): > 100 µM
- TGI (IGROV1 ovarian): > 100 µM
- TGI (K-562 leukemia): > 100 µM
- TGI (KM12 colon): > 100 µM
- TGI (LOX IMVI melanoma): > 100 µM
- TGI (M14 melanoma): > 100 µM
- TGI (MALME-3M melanoma): > 100 µM
- TGI (MCF7 breast): > 100 µM
- TGI (MDA-MB-231 breast): > 100 µM
- TGI (MDA-MB-435): > 100 µM
- TGI (MDA-N): > 100 µM
- TGI (MOLT-4 leukemia): > 100 µM
- TGI (NCI-H226 lung): > 100 µM
- TGI (NCI-H23 lung): > 100 µM
- TGI (NCI-H522 lung): > 100 µM
- TGI (NCI/ADR-RES ovarian): > 100 µM
- TGI (OVCAR-3 ovarian): > 100 µM
- TGI (OVCAR-4 ovarian): > 100 µM
- TGI (OVCAR-5 ovarian): > 100 µM
- TGI (OVCAR-8 ovarian): > 100 µM
- TGI (PC-3 prostate): > 100 µM
- TGI (RPMI-8226 leukemia): > 100 µM
- TGI (RXF 393 renal): > 100 µM
- TGI (SF-268 CNS): > 100 µM
- TGI (SF-295 CNS): > 100 µM
- TGI (SF-539 CNS): > 100 µM
- TGI (SK-MEL-2 melanoma): > 100 µM
- TGI (SK-MEL-28 melanoma): > 100 µM
- TGI (SK-MEL-5 melanoma): > 100 µM
- TGI (SN12C renal): > 100 µM
- TGI (SNB-19 CNS): > 100 µM
- TGI (SW-620 colon): > 100 µM
- TGI (T-47D breast): > 100 µM
- TGI (TK-10 renal): > 100 µM
- TGI (U251 CNS): > 100 µM
- TGI (UACC-257 melanoma): > 100 µM
- TGI (UACC-62 melanoma): > 100 µM
- TGI (UO-31 renal): > 100 µM

SMILES: Cc1ccc(NCCCN2CCN(CCCNc3ccc(C)c4sc5ccccc5c(=O)c34)CC2)c2c(=O)c3ccccc3sc12
- TGI (786-0 renal): > 100 µM
- TGI (A498 renal): > 100 µM
- TGI (A549 NSCLC): > 100 µM
- TGI (ACHN renal): > 100 µM
- TGI (CAKI-1 renal): > 100 µM
- TGI (CCRF-CEM leukemia): > 100 µM
- TGI (COLO 205 colon): > 100 µM
- TGI (DU-145 prostate): > 100 µM
- TGI (EKVX NSCLC): > 100 µM
- TGI (HCC-2998 colon): > 100 µM
- TGI (HCT-116 colon): > 100 µM
- TGI (HCT-15 colon): > 100 µM
- TGI (HL-60(TB) leukemia): > 100 µM
- TGI (HOP-62 NSCLC): > 100 µM
- TGI (HS 578T breast): 79.6 µM
- TGI (HT29 colon): > 100 µM
- TGI (IGROV1 ovarian): > 100 µM
- TGI (K-562 leukemia): > 100 µM
- TGI (KM12 colon): > 100 µM
- TGI (LOX IMVI melanoma): > 100 µM
- TGI (M14 melanoma): > 100 µM
- TGI (MALME-3M melanoma): > 100 µM
- TGI (MCF7 breast): > 100 µM
- TGI (MDA-MB-231 breast): > 100 µM
- TGI (MDA-MB-435): > 100 µM
- TGI (MDA-N): > 100 µM
- TGI (MOLT-4 leukemia): > 100 µM
- TGI (NCI-H226 lung): > 100 µM
- TGI (NCI-H23 lung): > 100 µM
- TGI (NCI-H460 lung): > 100 µM
- TGI (NCI-H522 lung): > 100 µM
- TGI (NCI/ADR-RES ovarian): > 100 µM
- TGI (OVCAR-3 ovarian): > 100 µM
- TGI (OVCAR-4 ovarian): > 100 µM
- TGI (OVCAR-5 ovarian): > 100 µM
- TGI (OVCAR-8 ovarian): > 100 µM
- TGI (PC-3 prostate): > 100 µM
- TGI (RPMI-8226 leukemia): > 100 µM
- TGI (RXF 393 renal): > 100 µM
- TGI (SF-268 CNS): > 100 µM
- TGI (SF-295 CNS): > 100 µM
- TGI (SF-539 CNS): > 100 µM
- TGI (SK-MEL-2 melanoma): 93.8 µM
- TGI (SK-MEL-28 melanoma): > 100 µM
- TGI (SK-MEL-5 melanoma): > 100 µM
- TGI (SK-OV-3 ovarian): > 100 µM
- TGI (SN12C renal): > 100 µM
- TGI (SNB-19 CNS): > 100 µM
- TGI (SNB-75 CNS): 57.1 µM
- TGI (SR leukemia): > 100 µM
- TGI (SW-620 colon): > 100 µM
- TGI (T-47D breast): > 100 µM
- TGI (U251 CNS): > 100 µM
- TGI (UACC-257 melanoma): > 100 µM
- TGI (UACC-62 melanoma): > 100 µM
- TGI (UO-31 renal): > 100 µM

SMILES: N#Cc1cc(C#N)c(Cl)nc1N
- TGI (786-0 renal): > 10 µM
- TGI (A549 NSCLC): > 10 µM
- TGI (ACHN renal): > 10 µM
- TGI (CCRF-CEM leukemia): > 10 µM
- TGI (COLO 205 colon): > 10 µM
- TGI (EKVX NSCLC): > 10 µM
- TGI (HCC-2998 colon): > 10 µM
- TGI (HCT-116 colon): > 10 µM
- TGI (HCT-15 colon): > 10 µM
- TGI (HL-60(TB) leukemia): > 10 µM
- TGI (HOP-62 NSCLC): > 10 µM
- TGI (HOP-92 NSCLC): > 10 µM
- TGI (HS 578T breast): > 10 µM
- TGI (HT29 colon): > 10 µM
- TGI (IGROV1 ovarian): > 10 µM
- TGI (K-562 leukemia): > 10 µM
- TGI (KM12 colon): > 10 µM
- TGI (LOX IMVI melanoma): > 10 µM
- TGI (MALME-3M melanoma): > 10 µM
- TGI (MCF7 breast): > 10 µM
- TGI (MDA-MB-435): > 10 µM
- TGI (MDA-N): > 10 µM
- TGI (MOLT-4 leukemia): > 10 µM
- TGI (NCI-H226 lung): > 10 µM
- TGI (NCI-H23 lung): > 10 µM
- TGI (NCI-H460 lung): > 10 µM
- TGI (NCI/ADR-RES ovarian): > 10 µM
- TGI (OVCAR-3 ovarian): > 10 µM
- TGI (OVCAR-4 ovarian): > 10 µM
- TGI (OVCAR-8 ovarian): > 10 µM
- TGI (PC-3 prostate): > 10 µM
- TGI (RPMI-8226 leukemia): > 10 µM
- TGI (RXF 393 renal): > 10 µM
- TGI (SF-268 CNS): > 10 µM
- TGI (SF-295 CNS): > 10 µM
- TGI (SF-539 CNS): > 10 µM
- TGI (SK-MEL-2 melanoma): > 10 µM
- TGI (SK-MEL-28 melanoma): > 10 µM
- TGI (SK-MEL-5 melanoma): > 10 µM
- TGI (SK-OV-3 ovarian): > 10 µM
- TGI (SN12C renal): > 10 µM
- TGI (SNB-19 CNS): > 10 µM
- TGI (SNB-75 CNS): > 10 µM
- TGI (SR leukemia): > 10 µM
- TGI (SW-620 colon): > 10 µM
- TGI (T-47D breast): > 10 µM
- TGI (TK-10 renal): > 10 µM
- TGI (U251 CNS): > 10 µM
- TGI (UACC-62 melanoma): > 10 µM
- TGI (UO-31 renal): > 10 µM
